Assay results reported in patent US10611750B2, “Tetrahydroquinoline compositions as bet bromodomain inhibitors” (FORMA Therapeutics, Inc., priority 2013, dated 2020).

Legend:
[1] = target: T1, BRD4 Bromodomain 1 (BRD4 BD1) (Homo sapiens, UniProt O60885); test: AlphaScreen binding assay, BRD4 BD1; conditions: His-tagged BRD4 BD1 50 nM, biotinylated H4 (1-21) K5/8/12/16 tetra-acetylated peptide 50 nM, compounds listed under IC50 range headings
T1 construct: 44-168 and BRD4 BD2
Method in brief: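 An AlphaScreen competition format was used with His-BRD4 BD1 or BD2 and biotin-H4 K5/8/12/16-acetyl peptide, each at matched final levels of 50 nM (BD1) or 100 nM (BD2). Incubation in HEPES/NaCl buffer with 0.1% BSA and 0.01% Triton X-100 ran ≥1 h before IC50 determination.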

[2] = test system: acute myelocytic leukemia (AML) cell line MV4-11; test: Oncology cell growth assay (3-day proliferation, CellTiter-Glo); format: cell-based; conditions: Homo sapiens, MV4-11, 72 h, MV4-11 cells, 3000 cells/well, compounds listed under IC50 range headings, read-out: MV411 IC50 (gIC50, inhibition of proliferation)
Method in brief: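 MV4-11 AML cells (RPMI 1640, 10% FBS) plated at 3000 cells/well and exposed 72 h to compound at final 10 to 0.0045 μM (3-fold series). Viability read by CellTiter-Glo luminescence; gIC50 from four-parameter logistic fit between DMSO control and no-cell background.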

Compound | IC50 [1] | IC50 [2]
C[C@H]1CCc2c(ccc(-c3cnn4c3N(S(C)(=O)=O)CC4)c2OC2CCC2)N1C(=O)C1CC1 [I-279, ((2S)-5-cyclobutoxy-2-methyl-6-(1-(methylsulfonyl)-2,3-dihydro-1H-pyrazolo[1,5-a]imidazol-7-yl)-3,4-dihydroquinolin-1 (2H)-yl)(cyclopropyl)methanone] | 1000 to 10000 nM | > 1000 nM
COC(=O)N1c2ccc(-c3csc(C4(O)CCNCC4)n3)c(OC3CCC3)c2CC[C@@H]1C [I-280, methyl (S)-5-cyclobutoxy-6-(2-(4-hydroxypiperidin-4-yl)thiazol-4-yl)-2-methyl-3,4-dihydroquinoline-1(2H)-carboxylate] | 1000 to 10000 nM | < 500 nM
COC(=O)N1c2ccc(-c3csc(C4(F)CCNCC4)n3)c(OC3CCC3)c2CC[C@@H]1C [I-281, methyl (S)-5-cyclobutoxy-6-(2-(4-fluoropiperidin-4-yl)thiazol-4-yl)-2-methyl-3,4-dihydroquinoline-1(2H)-carboxylate] | 100 to 1000 nM | 500 to 1000 nM
COC(=O)N1c2ccc(-c3cnn(C4CCNCC4OC)c3)c(OC3CCC3)c2CC[C@@H]1C (stereo partly drawn) [I-290, (2S)-methyl 5-cyclobutoxy-6-(1-(3-methoxypiperidin-4-yl)-1H-pyrazol-4-yl)-2-methyl-3,4-dihydroquinoline-1(2H)-carboxylate] | 100 to 1000 nM | < 500 nM
COC(=O)N1c2ccc(-c3cnn(C4CCNCC4OC)c3)c(Oc3ccc(F)cc3)c2CC[C@@H]1C (stereo partly drawn) [I-291, (2S)-methyl 5-(4-fluorophenoxy)-6-(1-(3-methoxypiperidin-4-yl)-1H-pyrazol-4-yl)-2-methyl-3,4-dihydroquinoline-1(2H)-carboxylate] | 100 to 1000 nM | < 500 nM
COC(=O)N1c2ccc(-c3cnn(C4CCN(C)CC4OC)c3)c(OC3CCC3)c2CC[C@@H]1C (stereo partly drawn) [I-292, (2S)-methyl 5-cyclobutoxy-6-(1-(3-methoxy-1-methylpiperidin-4-yl)-1H-pyrazol-4-yl)-2-methyl-3,4-dihydroquinoline-1 (2H)-carboxylate] | 100 to 1000 nM | < 500 nM
COC(=O)N1c2ccc(-c3cnn(C4CCN(C)CC4OC)c3)c(Oc3ccc(F)cc3)c2CC[C@@H]1C (stereo partly drawn) [I-293, (2S)-methyl 5-(4-fluorophenoxy)-6-(1-(3-methoxy-1-methylpiperidin-4-yl)-1H-pyrazol-4-yl)-2-methyl-3,4-dihydroquinoline-1(2H)-carboxylate] | 100 to 1000 nM | < 500 nM
C[C@H]1CCc2c(ccc(-c3cnn(C4CCCS(=O)(=O)C4)c3)c2Oc2ccccc2)N1C(=O)C1CC1 (stereo partly drawn) [I-294, 3-{4-[(2S)-1-cyclopropanecarbonyl-2-methyl-5-phenoxy-1,2,3,4-tetrahydroquinolin-6-yl]-1H-pyrazol-1-yl}-1λ^6-thiane-1,1-dione] | 100 to 1000 nM | < 500 nM
C[C@H]1CCc2c(ccc(-c3cnn(C4CCCS(=O)(=O)C4)c3)c2Oc2ccc(F)cc2)N1C(=O)C1CC1 (stereo partly drawn) [I-295, 3-{4-[(2S)-1-cyclopropanecarbonyl-5-(4-fluorophenoxy)-2-methyl-1,2,3,4-tetrahydroquinolin-6-yl]-1H-pyrazol-1-yl}-1λ^6-thiane-1,1-dione] | 100 to 1000 nM | < 500 nM
COC(=O)N1c2ccc(-c3cnn(C4CCNC(=O)C4)c3)c(OC3CCC3)c2CC[C@@H]1C (stereo partly drawn) [I-296, (2S)-methyl 5-cyclobutoxy-2-methyl-6-(1-(2-oxopiperidin-4-yl)-1H-pyrazol-4-yl)-3,4-dihydroquinoline-1(2H)-carboxylate] | 100 to 1000 nM | < 500 nM
COC(=O)N1c2ccc(-c3cnn(C4CCNC(=O)C4)c3)c(Oc3ccc(F)cc3)c2CC[C@@H]1C (stereo partly drawn) [I-297, (2S)-methyl 5-(4-fluorophenoxy)-2-methyl-6-(1-(2-oxopiperidin-4-yl)-1H-pyrazol-4-yl)-3,4-dihydroquinoline-1(2H)-carboxylate] | 100 to 1000 nM | < 500 nM
COC(=O)N1c2ccc(-c3cnn(C4CNC4C)c3)c(Oc3ccc(F)cc3)c2CC[C@@H]1C (stereo partly drawn) [I-298, methyl (2S)-5-(4-fluorophenoxy)-2-methyl-6-(1-(2-methylazetidin-3-yl)-1H-pyrazol-4-yl)-3,4-dihydroquinoline-1(2H)-carboxylate] | 100 to 1000 nM | < 500 nM
COC(=O)N1c2ccc(-c3cnn(C4CNC4C)c3)c(OC3CCC3)c2CC[C@@H]1C (stereo partly drawn) [I-299, methyl (2S)-5-cyclobutoxy-2-methyl-6-(1-(2-methylazetidin-3-yl)-1H-pyrazol-4-yl)-3,4-dihydroquinoline-1(2H)-carboxylate] | 1000 to 10000 nM | 500 to 1000 nM
C[C@H]1CCc2c(ccc(-c3cnn(C4CC4)c3NS(C)(=O)=O)c2OC2CCC2)N1C(=O)C1CC1 [I-300, N-(4-((2S)-5-cyclobutoxy-1-(cyclopropanecarbonyl)-2-methyl-1,2,3,4-tetrahydroquinolin-6-yl)-1-cyclopropyl-1H-pyrazol-5-yl)methanesulfonamide] | ≥ 10000 nM | > 1000 nM
CC(=O)Nc1c(-c2ccc3c(c2OC2CCC2)CC[C@H](C)N3C(=O)C2CC2)cnn1C1CC1 [I-301, N-(4-((2S)-5-cyclobutoxy-1-(cyclopropanecarbonyl)-2-methyl-1,2,3,4-tetrahydroquinolin-6-yl)-1-cyclopropyl-1H-pyrazol-5-yl)acetamide] | 1000 to 10000 nM | > 1000 nM
COC(=O)N1c2ccc(-c3cnn(C4CC(O)C4)c3)c(OC3CCC3)c2CC[C@@H]1C (stereo partly drawn) [I-302, (S)-methyl 5-cyclobutoxy-6-(1-(3-hydroxycyclobutyl)-1H-pyrazol-4-yl)-2-methyl-3,4-dihydroquinoline-1(2H)-carboxylate] | 100 to 1000 nM | < 500 nM
COC(=O)N1c2ccc(-c3c[nH]c(C4CCNCC4)n3)c(OC3CCC3)c2CC[C@@H]1C [I-303, methyl (S)-5-cyclobutoxy-2-methyl-6-(2-(piperidin-4-yl)-1H-imidazol-4-yl)-3,4-dihydroquinoline-1(2H)-carboxylate] | 100 to 1000 nM | < 500 nM
COC(=O)N1c2ccc(-c3cn(C)c(C4CCNCC4)n3)c(OC3CCC3)c2CC[C@@H]1C [I-304, methyl (S)-5-cyclobutoxy-2-methyl-6-(1-methyl-2-(piperidin-4-yl)-1H-imidazol-4-yl)-3,4-dihydroquinoline-1(2H)-carboxylate] | ≥ 10000 nM | > 1000 nM
C[C@H]1CCc2c(ccc(-c3ccn(C4CCNCC4)n3)c2OC2CCC2)N1C(=O)C1CC1 [I-305, (S)-(5-cyclobutoxy-2-methyl-6-(1-(piperidin-4-yl)-1H-pyrazol-3-yl)-3,4-dihydroquinolin-1 (2H)-yl)(cyclopropyl)methanone] | 1000 to 10000 nM | < 500 nM
C[C@H]1CCc2c(ccc(-c3ccnn3C3CCNCC3)c2OC2CCC2)N1C(=O)C1CC1 [I-306, ((2S)-5-cyclobutoxy-2-methyl-6-(1-(piperidin-4-yl)-1H-pyrazol-5-yl)-3,4-dihydroquinolin-1(2H)-yl)(cyclopropyl)methanone] | ≥ 10000 nM | > 1000 nM
C[C@H]1CCc2c(ccc(-c3ccn(C4CCNCC4)n3)c2Oc2ccccc2)N1C(=O)C1CC1 [I-307, (S)-cyclopropyl(2-methyl-5-phenoxy-6-(1-(piperidin-4-yl)-1H-pyrazol-3-yl)-3,4-dihydroquinolin-1(2H)-yl)methanone] | 100 to 1000 nM | < 500 nM
C[C@H]1CCc2c(ccc(-c3ccnn3C3CCNCC3)c2Oc2ccccc2)N1C(=O)C1CC1 [I-308, cyclopropyl((2S)-2-methyl-5-phenoxy-6-(1-(piperidin-4-yl)-1H-pyrazol-5-yl)-3,4-dihydroquinolin-1(2H)-yl)methanone] | ≥ 10000 nM | > 1000 nM
C[C@H]1CCc2c(ccc(-c3cnn(C4CCNCC4)n3)c2OC2CCC2)N1C(=O)C1CC1 [I-309, (S)-(5-cyclobutoxy-2-methyl-6-(2-(piperidin-4-yl)-2H-1,2,3-triazol-4-yl)-3,4-dihydroquinolin-1(2H)-yl)(cyclopropyl)methanone] | 1000 to 10000 nM | < 500 nM
C[C@H]1CCc2c(ccc(-c3cn(C4CCNCC4)nn3)c2OC2CCC2)N1C(=O)C1CC1 [I-310, (S)-(5-cyclobutoxy-2-methyl-6-(1-(piperidin-4-yl)-1H-1,2,3-triazol-4-yl)-3,4-dihydroquinolin-1(2H)-yl)(cyclopropyl)methanone] | 100 to 1000 nM | < 500 nM
C[C@H]1CCc2c(ccc(-c3cnn(C4CCNCC4)n3)c2Oc2ccccc2)N1C(=O)C1CC1 [I-311, (S)-cyclopropyl(2-methyl-5-phenoxy-6-(2-(piperidin-4-yl)-2H-1,2,3-triazol-4-yl)-3,4-dihydroquinolin-1(2H)-yl)methanone] | < 100 nM | < 500 nM
C[C@H]1CCc2c(ccc(-c3cn(C4CCNCC4)nn3)c2Oc2ccccc2)N1C(=O)C1CC1 [I-312, (S)-cyclopropyl(2-methyl-5-phenoxy-6-(1-(piperidin-4-yl)-1H-1,2,3-triazol-4-yl)-3,4-dihydroquinolin-1(2H)-yl)methanone] | < 100 nM | < 500 nM
COC(=O)N1c2ccc(-c3csc(C4CNC4)n3)c(OC3CCC3)c2CC[C@@H]1C [I-313, (S)-methyl 6-(2-(azetidin-3-yl)thiazol-4-yl)-5-cyclobutoxy-2-methyl-3,4-dihydroquinoline-1(2H)-carboxylate] | 100 to 1000 nM | > 1000 nM
COC(=O)N1c2ccc(-c3csc(C4(O)CNC4)n3)c(OC3CCC3)c2CC[C@@H]1C [I-314, (S)-methyl-5-cyclobutoxy-6-(2-(3-hydroxyazetidin-3-yl)thiazol-4-yl)-2-methyl-3,4-dihydroquinoline-1(2H)-carboxylate] | 1000 to 10000 nM | > 1000 nM
